Results published in patent US5747544A, “Method of using pure 3R-3'R stereoisomer of zeaxanthin to treat or prevent retinal degeneration in humans” (priority 1995, dated 1998).

Tests used:
macular degeneration = settings: general anti-oxidants; cited from earlier work
[1] = di Mascio et al 1989; among known carotenoids; cited from earlier work
[2] = system: animals such as birds or fish; assay: Feeding of F. multivorum cell paste to animals such as birds or fish; assay type: in vivo; settings: oral, cell paste of F. multivorum cells
Excerpt: Although this option has not yet been fully evaluated, it is possible that the Flavobacterium multivorum cells themselves, in intact form and possibly even in a viable state, may be suitable for direct ingestion by humans. A substantial number of human foods (including cheese, yogurt, beer, etc.) contain viable or killed-but-intact microbial cells, and there is no known pathogenicity associated with the F. multivorum cells isolated by Applied Food Biotechnology, Inc. They were isolated from a relatively cold artesian waterway, and since they are adapted to living in cold water, they cannot survive or reproduce well at temperatures inside the human body. […] When fed directly in the form of a cell paste to animals such as birds or fish, these cells appear to be well-suited as delivery vehicles for zeaxanthin.

physchem = settings: dry powder
Excerpt: After roughly six months of storage in a relatively unprotected state (usually under normal refrigeration with moderately frequent removal; without containing any antioxidants, and without taking any precautions to prevent contact by atmospheric oxygen), a sample of the zeaxanthin preparation was sent for stereoisomeric analysis to Prof.

chickens = settings: cited from earlier work
retina = settings: in vivo; cited from earlier work

## Cc1c(C)c2c(c(C)c1O)CCC(C)(CCCC(C)CCCC(C)CCCC(C)C)O2 (stereo not drawn) [alpha-Tocopherol]
Macular degeneration
  benefit in the retina against macular degeneration: very limited

## CC(C)=CCC/C(C)=C/C=C/C(C)=C/C=C/C(C)=C/C=C/C=C(C)/C=C/C=C(C)/C=C/C=C(\C)CCC=C(C)C [lycopene]
[1]
  singlet oxygen quenching: best singlet oxygen quencher of all known carotenoids

## CC1=C(/C=C/C(C)=C/C=C/C(C)=C/C=C/C=C(C)/C=C/C=C(C)/C=C/C2=C(C)C[C@@H](O)CC2(C)C)C(C)(C)C[C@H](O)C1 [Zeaxanthin, 3,3'-dihydroxy-β-β-carotene]
[2]
  absorption and tissue deposition of zeaxanthin: absorbed into the bloodstream and deposited into various tissues at expected and appropriate tissue locations
physchem
  remaining at 4380 h: 92%
chickens; Flavobacter cells (ATCC 21081, 21588) with their zeaxanthin fed, U.S. Pat. No. 3,891,504
  coloration of chickens: caused suitable coloration
chickens; per-weight basis, chicken skin and egg yolks
  coloring potency relative to lutein: 2-3 times
chickens; per-weight basis
  effectiveness in imparting color to animal flesh or chicken yolks relative to lutein: several times more effective

## CC1=C(/C=C/C(C)=C/C=C/C(C)=C/C=C/C=C(C)/C=C/C=C(C)/C=C/C2=C(C)C(=O)CCC2(C)C)C(C)(C)CCC1=O [Canthaxanthin]
retina
  retinal toxicity: has been shown to cause retinal maculopathy

## CC1=C(/C=C/C(C)=C/C=C/C(C)=C/C=C/C=C(C)/C=C/C=C(C)/C=C/C2=C(C)CCCC2(C)C)C(C)(C)CCC1 [β-Carotene, β-carotene]
Macular degeneration
  benefit in the retina against macular degeneration: very limited

## CC1=C(/C=C/C(C)=C/C=C/C(C)=C/CO)C(C)(C)CCC1 [Retinol (Vit. A), Retinol]
Macular degeneration
  benefit in the retina against macular degeneration: very limited
